Consider six molecules from ChEMBL document CHEMBL1201862, “PubChem BioAssay data set” (2004).

For experiment [1], the target named is T1, Hexokinase HKDC1 (Homo sapiens, UniProt Q2TB90).
T1 sequence (Q2TB90 whole entry): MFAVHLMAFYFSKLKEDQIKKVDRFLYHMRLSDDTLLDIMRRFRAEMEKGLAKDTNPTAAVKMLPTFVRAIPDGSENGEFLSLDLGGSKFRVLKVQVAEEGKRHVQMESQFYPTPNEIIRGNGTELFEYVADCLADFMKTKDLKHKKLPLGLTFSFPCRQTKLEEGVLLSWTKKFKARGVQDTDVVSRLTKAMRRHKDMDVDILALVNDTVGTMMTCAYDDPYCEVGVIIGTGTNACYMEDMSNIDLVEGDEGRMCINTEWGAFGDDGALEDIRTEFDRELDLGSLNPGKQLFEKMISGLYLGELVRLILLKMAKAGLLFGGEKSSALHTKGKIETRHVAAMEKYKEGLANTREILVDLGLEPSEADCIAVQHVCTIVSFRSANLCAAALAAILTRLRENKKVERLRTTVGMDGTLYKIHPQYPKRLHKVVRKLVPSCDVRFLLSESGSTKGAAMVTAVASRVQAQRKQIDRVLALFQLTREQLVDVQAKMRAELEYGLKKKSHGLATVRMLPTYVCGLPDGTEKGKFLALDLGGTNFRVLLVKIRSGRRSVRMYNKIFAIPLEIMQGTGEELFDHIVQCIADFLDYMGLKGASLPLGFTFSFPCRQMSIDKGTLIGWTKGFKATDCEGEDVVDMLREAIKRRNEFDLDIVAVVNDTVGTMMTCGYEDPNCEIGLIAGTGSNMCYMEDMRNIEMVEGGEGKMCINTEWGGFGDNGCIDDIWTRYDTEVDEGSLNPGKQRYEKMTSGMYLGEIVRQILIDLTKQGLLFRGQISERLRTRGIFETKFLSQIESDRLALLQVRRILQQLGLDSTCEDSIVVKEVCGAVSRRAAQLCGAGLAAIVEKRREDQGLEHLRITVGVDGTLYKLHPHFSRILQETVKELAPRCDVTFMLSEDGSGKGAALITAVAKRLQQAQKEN
Description: HKDC1 hexokinase inhibitors, dose response, biochemical, W721R variant (AID 504729). The class given is functional.

Experiment [2] addresses T2, Replicative DNA helicase DnaB (Mycobacterium tuberculosis, UniProt P9WMR3).
T2 sequence (P9WMR3 whole entry): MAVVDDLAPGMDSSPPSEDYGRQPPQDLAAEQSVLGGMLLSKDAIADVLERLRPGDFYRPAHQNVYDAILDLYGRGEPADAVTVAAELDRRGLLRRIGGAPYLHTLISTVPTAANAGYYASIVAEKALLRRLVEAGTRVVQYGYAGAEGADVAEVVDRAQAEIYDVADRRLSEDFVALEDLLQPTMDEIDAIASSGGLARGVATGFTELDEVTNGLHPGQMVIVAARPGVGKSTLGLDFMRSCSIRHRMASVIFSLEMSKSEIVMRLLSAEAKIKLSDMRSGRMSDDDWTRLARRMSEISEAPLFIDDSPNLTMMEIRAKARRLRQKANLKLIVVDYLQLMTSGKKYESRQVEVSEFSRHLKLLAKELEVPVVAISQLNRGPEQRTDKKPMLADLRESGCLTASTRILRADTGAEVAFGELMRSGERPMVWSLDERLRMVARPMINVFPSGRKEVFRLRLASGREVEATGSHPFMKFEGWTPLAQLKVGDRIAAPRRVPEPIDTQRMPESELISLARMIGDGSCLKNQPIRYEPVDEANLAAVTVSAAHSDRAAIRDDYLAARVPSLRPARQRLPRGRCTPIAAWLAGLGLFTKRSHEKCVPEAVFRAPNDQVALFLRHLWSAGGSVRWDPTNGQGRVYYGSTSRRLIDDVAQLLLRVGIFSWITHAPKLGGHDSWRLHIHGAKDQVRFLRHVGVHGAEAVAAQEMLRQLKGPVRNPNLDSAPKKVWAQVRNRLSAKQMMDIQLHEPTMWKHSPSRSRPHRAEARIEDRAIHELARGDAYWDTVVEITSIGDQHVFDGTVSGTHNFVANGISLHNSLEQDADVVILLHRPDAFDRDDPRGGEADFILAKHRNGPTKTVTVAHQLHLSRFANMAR
Put plainly: DnaB intein splicing inhibitors, dose response, biochemical, cell-free fluorescence (AID 449749). The experiment is classed as functional.

Experiment [3] addresses T1, Hexokinase HKDC1. Put plainly: HKDC1 hexokinase inhibitors, SAR follow-up, biochemical, set 2 (AID 588355). The class given is functional.
Experiment [4] deals with Hexokinase-1 (Homo sapiens, UniProt P19367). Put plainly: HK1 enzyme inhibition by HKDC1 hits, SAR follow-up, selectivity assay for HKDC1 inhibitor project, biochemical, set 2, resazurin fluorescence coupled readout (AID 588356). The class given is functional. In general terms: Alamar Blue is a resazurin reagent that responds to reducing activity.
The target of experiment [5] is T3, Protein RecA (Mycobacterium tuberculosis, UniProt P9WHJ3).
T3 sequence (P9WHJ3 whole entry): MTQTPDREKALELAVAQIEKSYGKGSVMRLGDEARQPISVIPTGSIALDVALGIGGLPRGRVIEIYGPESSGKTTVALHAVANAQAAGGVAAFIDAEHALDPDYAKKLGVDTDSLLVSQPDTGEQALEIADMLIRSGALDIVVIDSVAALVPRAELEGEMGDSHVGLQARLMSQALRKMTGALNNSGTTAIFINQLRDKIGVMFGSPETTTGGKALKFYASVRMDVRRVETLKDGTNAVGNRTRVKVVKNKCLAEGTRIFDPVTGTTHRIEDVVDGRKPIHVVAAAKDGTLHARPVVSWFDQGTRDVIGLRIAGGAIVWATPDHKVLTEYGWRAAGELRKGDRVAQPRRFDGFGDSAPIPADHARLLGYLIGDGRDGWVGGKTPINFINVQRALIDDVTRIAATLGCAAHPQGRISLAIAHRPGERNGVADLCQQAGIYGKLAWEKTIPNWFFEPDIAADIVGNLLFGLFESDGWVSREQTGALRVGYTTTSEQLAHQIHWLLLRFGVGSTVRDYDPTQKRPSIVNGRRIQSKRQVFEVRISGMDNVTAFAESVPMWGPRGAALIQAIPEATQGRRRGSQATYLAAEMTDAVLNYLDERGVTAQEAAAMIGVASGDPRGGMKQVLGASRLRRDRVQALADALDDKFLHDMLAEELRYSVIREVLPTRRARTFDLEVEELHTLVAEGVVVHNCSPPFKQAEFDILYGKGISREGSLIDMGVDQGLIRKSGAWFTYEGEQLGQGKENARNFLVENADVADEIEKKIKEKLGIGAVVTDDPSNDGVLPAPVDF
Description: Fluorescence Cell-Free Homogeneous Dose Retest to Identify Inhibitors of RecA-Intein Splicing Activity. [Related pubchem assays (depositor defined):AID2097, AID2223, AID489010, AID492950]. The experiment is classed as functional.

Experiment [6] addresses Keap1/Nrf2 (Homo sapiens, UniProt Q14145). Description: Keap1-Nrf2 protein-protein interaction inhibitors, dose response, biochemical, fluorescence polarization, cherry-picked samples (AID 588683).
Experiment [7] has as its target Beta-lactamase (Pseudomonas aeruginosa, UniProt Q79MP6).
Experiment [8] concerns the target Beta-lactamase (Salmonella choleraesuis (strain SC-B67), UniProt Q5J463).
The target in experiment [9] is ORF 73 (Human herpesvirus 8, UniProt O40947). Put plainly: inhibitors of C-LANA binding to LBS DNA, dose response, biochemical, fluorescence polarization, cherry-picked samples (AID 504725).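 Further: fluorescence polarization of a labeled DNA duplex reporting LANA DNA binding; potency is for inhibitors that block LANA binding to the DNA.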 The arrangement: species or system Human gammaherpesvirus 8. Background: In fluorescence polarisation assays a small probe gives low polarisation when free and higher when bound to something large.

Experiment [10] has as its target T4, Insulin-degrading enzyme (Homo sapiens, UniProt P14735). Description: activators of endogenous IDE in HEK cells, dose response, cell-based, fluorescence polarization (AID 588439). The class given is functional.
Experiment [11] concerns the target T4, Insulin-degrading enzyme. Description: activators of recombinant IDE enzyme, dose response, counter-screen for IDE activator project, biochemical, fluorescence polarization (AID 588681). On the technique in general: The purpose of a counterscreen is to sort out artefacts and off-target activity.
In experiment [12] the test system is HEK293. Put plainly: optical interference in Abeta FP readout, dose response, artefact control for IDE activator project, biochemical, fluorescence polarization (AID 588442). The settings on record: Homo sapiens. The class given is functional, cell-based.
In experiment [13] the test system is HEK293. Put plainly: HEK cell cytotoxicity by LDH release, dose response, cytotoxicity control for IDE activator project, fluorescence, HEK cells (AID 588440).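 Further: cytotoxicity by LDH release measuring loss of membrane integrity.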 The following applies: Homo sapiens. The class given is functional, cell-based.
Experiment [14] is described as follows: inhibitors of intracellular T. cruzi replication, confirmation, NIH3T3 host cells, beta-gal luminescence (AID 2044).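 Further: intracellular parasites grown in NIH/3T3 mouse fibroblasts as host cells; luminescent beta-galactosidase reporter signal from transgenic T. cruzi replicating inside host cells; inhibitors lower the luminescence signal.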 The class given is functional, cell-based.
Experiment [15] in a line: inhibitors of SNCA 5'UTR-driven reporter translation, confirmation, H4 neuroglioma cells, luminescence (AID 1988). The experiment is classed as functional, cell-based.
The nature of experiment [16]: Luminescence Cell-Based Dose Response HTS to Identify Inhibitors of 5'UTR Stem-Loop Driven Prion Protein mRNA Translation in H4 Neuroglioblastoma Cells. [Related pubchem assays: 1827 (Project Summary), 1813 (Primary HTS)]. The experiment is classed as functional.
Experiment [17] is described as follows: inhibitors of firefly luciferase expression or activity, dose response, H4 neuroglioma cells, luminescence (AID 1990). The class given is functional, cell-based.
Experiment [18] can be described thus: HEp-2 cell cytotoxicity, dose response, cytotoxicity control for RSV inhibitor project, HTS (AID 2410). The class given is functional. The settings on record: human respiratory syncytial virus.
A short description of experiment [19]: cytotoxicity toward NIH3T3 fibroblasts, dose response, counter-screen, cell-based, ATP luminescence, mouse fibroblasts (AID 2010).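 Further: cells exposed to compound for about 90 hours before reading.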 The experiment is classed as functional.
Experiment [20] concerns the target DNA topoisomerase (Yersinia pestis, UniProt A0A2S9PM60). Put plainly: Y. pestis Topo-I inhibitors, cleavage product readout, dose response, biochemical, cherry-pick (AID 588525).
The test system of experiment [21] is INS1. Description: protection from cytokine-driven beta-cell apoptosis, dose response, JC-1 fluorescence, INS-1E, dry powder, set 2 (AID 488867). The class given is functional, cell-based. The settings on record: Rattus norvegicus.
Experiment [22] concerns INS1. Description: protection of INS-1E cells from cytokine death, dose response, ATP luminescence, dry powder (AID 488844). The experiment is classed as functional, cell-based. The following applies: Rattus norvegicus.
Experiment [23] has as its system INS1. Put plainly: protection from cytokine-induced mitochondrial depolarization, dose response, cell-based, INS-1E, JC-1 fluorescence ratio, dry powder (AID 488931). The experiment is classed as functional. The settings on record: Rattus norvegicus.
Experiment [24] addresses Phospholipase D2 (Homo sapiens, UniProt O14939). Put plainly: PLD2 inhibitor potency in cells, dose response (AID 602147).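 Further: cellular assay in HEK293 cells overexpressing GFP-tagged PLD2.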 The experiment is classed as functional.
Experiment [25] has as its target Phospholipase D1 (Homo sapiens, UniProt Q13393). Description: PLD1 inhibitor potency in cells, dose response (AID 602151).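 Further: cellular PLD1 assay in Calu-1 cells stimulated with PMA.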 The experiment is classed as functional.
Experiment [26] addresses Voltage-gated inwardly rectifying potassium channel KCNH2 (Homo sapiens, UniProt Q12809). The following applies: Potency.

What is called IC50 is the concentration needed to halve the response being measured. In general, AC50 refers to the midpoint of the concentration-response curve, whichever way the signal moves. A word on the EC50: it is the concentration giving half of the maximal effect. Usually CC50 stands for the concentration at which the toxic effect on the cells reaches its halfway point.

Active and inactive are the calls of the source.

T4 sequence (P14735 whole entry): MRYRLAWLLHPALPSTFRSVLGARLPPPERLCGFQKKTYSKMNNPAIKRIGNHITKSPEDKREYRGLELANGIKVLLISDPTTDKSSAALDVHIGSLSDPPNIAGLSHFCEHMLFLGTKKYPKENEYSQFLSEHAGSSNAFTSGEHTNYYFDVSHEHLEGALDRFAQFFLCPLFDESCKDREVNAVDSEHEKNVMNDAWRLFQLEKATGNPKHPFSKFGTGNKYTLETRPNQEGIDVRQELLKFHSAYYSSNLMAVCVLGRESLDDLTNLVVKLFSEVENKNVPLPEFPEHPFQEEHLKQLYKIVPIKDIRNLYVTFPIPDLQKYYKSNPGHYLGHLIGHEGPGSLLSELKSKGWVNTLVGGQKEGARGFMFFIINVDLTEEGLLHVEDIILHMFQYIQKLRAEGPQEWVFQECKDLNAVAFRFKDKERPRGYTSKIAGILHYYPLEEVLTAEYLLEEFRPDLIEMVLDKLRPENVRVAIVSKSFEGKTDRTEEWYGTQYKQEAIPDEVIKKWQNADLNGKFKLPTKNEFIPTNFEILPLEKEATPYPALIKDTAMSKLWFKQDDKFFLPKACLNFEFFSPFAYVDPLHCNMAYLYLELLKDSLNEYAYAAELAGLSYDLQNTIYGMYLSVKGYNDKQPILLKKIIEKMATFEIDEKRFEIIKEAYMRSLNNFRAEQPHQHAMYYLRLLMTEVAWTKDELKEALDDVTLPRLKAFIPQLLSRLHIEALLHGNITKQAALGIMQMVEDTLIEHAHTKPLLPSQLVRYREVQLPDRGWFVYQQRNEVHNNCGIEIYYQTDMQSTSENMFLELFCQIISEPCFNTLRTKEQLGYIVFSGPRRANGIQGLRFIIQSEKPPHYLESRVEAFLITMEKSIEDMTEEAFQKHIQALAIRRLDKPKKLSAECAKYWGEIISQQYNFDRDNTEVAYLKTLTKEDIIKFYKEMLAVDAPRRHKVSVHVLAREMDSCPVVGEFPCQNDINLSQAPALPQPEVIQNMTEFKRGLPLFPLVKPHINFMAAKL
Chain of Hexokinase-1 (P19367 whole entry): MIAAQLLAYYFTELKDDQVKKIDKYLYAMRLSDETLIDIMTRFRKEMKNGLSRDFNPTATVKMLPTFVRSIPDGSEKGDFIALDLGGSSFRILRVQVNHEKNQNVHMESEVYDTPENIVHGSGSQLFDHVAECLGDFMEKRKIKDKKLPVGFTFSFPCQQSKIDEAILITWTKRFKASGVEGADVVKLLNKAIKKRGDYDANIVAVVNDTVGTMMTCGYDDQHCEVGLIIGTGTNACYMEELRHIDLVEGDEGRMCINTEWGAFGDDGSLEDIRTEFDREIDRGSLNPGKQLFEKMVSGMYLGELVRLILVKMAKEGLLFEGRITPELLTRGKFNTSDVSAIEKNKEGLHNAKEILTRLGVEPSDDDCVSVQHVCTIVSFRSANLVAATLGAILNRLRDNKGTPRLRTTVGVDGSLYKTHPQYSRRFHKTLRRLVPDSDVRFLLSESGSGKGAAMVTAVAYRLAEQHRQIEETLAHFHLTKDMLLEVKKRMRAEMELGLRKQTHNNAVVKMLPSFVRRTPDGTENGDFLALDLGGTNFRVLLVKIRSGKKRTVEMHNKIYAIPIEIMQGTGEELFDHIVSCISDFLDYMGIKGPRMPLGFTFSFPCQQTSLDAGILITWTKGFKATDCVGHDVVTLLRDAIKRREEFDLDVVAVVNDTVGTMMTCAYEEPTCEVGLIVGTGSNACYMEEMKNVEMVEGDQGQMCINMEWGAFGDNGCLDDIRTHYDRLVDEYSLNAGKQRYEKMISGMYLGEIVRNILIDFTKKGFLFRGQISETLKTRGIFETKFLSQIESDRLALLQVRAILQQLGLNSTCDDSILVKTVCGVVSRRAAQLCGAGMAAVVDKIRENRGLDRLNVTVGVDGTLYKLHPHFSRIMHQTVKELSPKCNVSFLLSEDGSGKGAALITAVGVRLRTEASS
Chain of DNA topoisomerase (A0A2S9PM60 whole entry): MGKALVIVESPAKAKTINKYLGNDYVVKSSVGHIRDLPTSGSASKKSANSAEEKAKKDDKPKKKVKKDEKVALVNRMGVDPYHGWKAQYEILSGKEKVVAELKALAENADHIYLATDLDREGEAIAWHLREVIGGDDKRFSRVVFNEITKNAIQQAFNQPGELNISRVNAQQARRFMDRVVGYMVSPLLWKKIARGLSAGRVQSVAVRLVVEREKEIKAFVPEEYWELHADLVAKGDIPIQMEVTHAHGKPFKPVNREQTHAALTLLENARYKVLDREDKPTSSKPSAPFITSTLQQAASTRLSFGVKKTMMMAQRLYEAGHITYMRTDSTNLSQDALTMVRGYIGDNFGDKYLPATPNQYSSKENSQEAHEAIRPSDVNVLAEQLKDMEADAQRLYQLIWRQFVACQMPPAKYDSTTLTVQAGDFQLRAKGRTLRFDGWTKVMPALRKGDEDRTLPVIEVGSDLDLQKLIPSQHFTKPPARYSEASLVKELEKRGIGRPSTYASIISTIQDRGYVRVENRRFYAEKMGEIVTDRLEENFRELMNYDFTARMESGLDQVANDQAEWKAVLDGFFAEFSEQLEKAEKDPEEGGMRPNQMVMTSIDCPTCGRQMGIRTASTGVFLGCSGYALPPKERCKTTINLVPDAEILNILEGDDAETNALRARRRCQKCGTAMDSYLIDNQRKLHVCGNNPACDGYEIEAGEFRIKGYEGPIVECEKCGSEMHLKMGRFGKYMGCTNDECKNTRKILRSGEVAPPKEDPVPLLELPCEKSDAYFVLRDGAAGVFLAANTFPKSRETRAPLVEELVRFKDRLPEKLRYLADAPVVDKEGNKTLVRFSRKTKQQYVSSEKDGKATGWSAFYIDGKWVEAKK
Chain of Beta-lactamase (Pseudomonas aeruginosa, UniProt Q79MP6) (Q79MP6 whole entry): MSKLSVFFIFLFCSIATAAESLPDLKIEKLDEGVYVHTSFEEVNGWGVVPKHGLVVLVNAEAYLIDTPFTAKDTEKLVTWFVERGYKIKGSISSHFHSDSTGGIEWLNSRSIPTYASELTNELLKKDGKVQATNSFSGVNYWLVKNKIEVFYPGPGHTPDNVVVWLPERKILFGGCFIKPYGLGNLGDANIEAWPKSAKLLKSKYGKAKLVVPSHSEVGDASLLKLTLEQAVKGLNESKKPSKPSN
Chain of Phospholipase D2 (O14939 whole entry): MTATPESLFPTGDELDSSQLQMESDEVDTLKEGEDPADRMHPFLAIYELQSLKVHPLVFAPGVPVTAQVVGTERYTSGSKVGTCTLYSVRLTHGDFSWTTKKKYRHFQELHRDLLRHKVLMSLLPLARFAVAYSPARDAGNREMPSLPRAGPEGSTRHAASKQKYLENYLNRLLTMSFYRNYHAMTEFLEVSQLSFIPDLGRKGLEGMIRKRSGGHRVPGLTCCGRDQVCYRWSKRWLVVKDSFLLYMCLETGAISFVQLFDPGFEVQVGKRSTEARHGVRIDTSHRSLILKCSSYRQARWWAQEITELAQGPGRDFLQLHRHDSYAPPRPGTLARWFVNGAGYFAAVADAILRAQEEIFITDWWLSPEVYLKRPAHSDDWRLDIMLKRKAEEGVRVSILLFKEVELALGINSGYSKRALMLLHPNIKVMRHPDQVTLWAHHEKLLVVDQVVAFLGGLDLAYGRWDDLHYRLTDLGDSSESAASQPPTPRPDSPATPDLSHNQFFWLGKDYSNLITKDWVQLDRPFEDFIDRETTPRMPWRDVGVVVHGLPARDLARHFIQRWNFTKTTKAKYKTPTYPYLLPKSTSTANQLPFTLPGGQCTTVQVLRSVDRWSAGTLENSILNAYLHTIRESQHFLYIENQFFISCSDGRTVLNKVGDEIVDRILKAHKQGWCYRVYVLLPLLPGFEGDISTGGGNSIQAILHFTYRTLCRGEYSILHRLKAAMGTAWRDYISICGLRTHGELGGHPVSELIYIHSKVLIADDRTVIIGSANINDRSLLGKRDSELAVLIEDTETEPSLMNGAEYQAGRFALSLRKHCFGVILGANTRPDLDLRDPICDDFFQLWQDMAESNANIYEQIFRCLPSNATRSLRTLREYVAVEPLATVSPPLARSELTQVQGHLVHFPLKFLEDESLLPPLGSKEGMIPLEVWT
Chain of ORF 73 (O40947 whole entry): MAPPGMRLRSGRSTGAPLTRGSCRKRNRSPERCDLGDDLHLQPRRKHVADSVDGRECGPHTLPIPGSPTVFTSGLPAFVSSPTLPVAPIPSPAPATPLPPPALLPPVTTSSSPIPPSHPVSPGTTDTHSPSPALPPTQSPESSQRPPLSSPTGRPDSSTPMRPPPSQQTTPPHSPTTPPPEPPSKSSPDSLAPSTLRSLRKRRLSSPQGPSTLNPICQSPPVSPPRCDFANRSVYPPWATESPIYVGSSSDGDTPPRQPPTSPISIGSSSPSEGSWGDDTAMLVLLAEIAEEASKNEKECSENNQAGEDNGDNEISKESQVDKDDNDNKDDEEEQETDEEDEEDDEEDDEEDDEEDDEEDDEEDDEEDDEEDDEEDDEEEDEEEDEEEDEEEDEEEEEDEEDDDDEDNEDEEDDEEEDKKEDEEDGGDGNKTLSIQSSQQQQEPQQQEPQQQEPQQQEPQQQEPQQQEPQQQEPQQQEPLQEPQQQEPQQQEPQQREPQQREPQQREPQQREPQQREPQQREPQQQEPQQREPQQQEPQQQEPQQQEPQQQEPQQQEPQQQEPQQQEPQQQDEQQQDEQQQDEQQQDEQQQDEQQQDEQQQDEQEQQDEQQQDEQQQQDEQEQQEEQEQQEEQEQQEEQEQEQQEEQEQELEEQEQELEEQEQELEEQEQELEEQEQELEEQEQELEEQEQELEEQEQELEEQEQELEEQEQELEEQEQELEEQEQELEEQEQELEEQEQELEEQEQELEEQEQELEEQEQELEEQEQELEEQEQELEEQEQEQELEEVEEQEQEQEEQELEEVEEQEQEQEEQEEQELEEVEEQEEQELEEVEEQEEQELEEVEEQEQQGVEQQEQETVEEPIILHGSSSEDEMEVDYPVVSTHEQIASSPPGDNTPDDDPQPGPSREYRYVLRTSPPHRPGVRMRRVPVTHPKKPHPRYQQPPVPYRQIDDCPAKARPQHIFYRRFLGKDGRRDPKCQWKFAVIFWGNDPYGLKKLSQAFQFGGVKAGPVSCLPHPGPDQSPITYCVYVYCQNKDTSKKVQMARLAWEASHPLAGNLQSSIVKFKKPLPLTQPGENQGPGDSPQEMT

With `CC(=O)NC1C(=O)N(CCN2CCOCC2)c2ccc(C)cc21` (configuration not stated), the IC50 was 4.71 µM (active) in experiment [1], 4.45 µM (active) in [3] and > 80 µM (inactive) in [4]. In [2], the AC50 is 22.1 µM (active). The concentration giving a half-maximal response (EC50) in [5] is 8.53 µM (active).

With `CNc1ccc2c3c(cccc13)C(=O)N(C)C2=O`, the AC50 was 0.399 µM (active) in experiment [6] and 0.588 µM (active) in experiment [9]. For the same molecule, the IC50 in experiment [7] is 3.92 µM (active); in experiment [8] it was 2.2 µM (active); in experiment [13], > 89.3 µM (inactive). Besides, the EC50 was > 54.8 µM (inactive) in experiment [10], > 54.8 µM (inactive) in experiment [11] and 6.57 µM (active) in [12].

As to `COc1ccc(-c2nc3c(c(=O)[nH]c(=O)n3Cc3ccccc3)n2Cc2ccccc2)cc1`, the EC50 is 0.826 µM (active) in [14]; 17.7 µM (active) in experiment [15]; > 120 µM (not active) in experiment [16]; 26.7 µM (active) in [17]; > 60 µM (inconclusive) in [19]. Moreover, in experiment [18], the CC50 was 7.31 µM (active). In [20], the AC50 was 7.41 µM (active).

On to `COc1ccc(S(=O)(=O)N(C)C[C@@H]2Oc3c(NC(=O)Nc4ccccc4)cccc3C(=O)N([C@@H](C)CO)C[C@H]2C)cc1`, for which the AC50 in experiment [21] is 58.9 µM (active); in [22], > 260 µM (inactive); in experiment [23], 34.8 µM (active).

Consider `O=C(NCCN1CCC2(CC1)C(=O)NCN2c1ccccc1)c1ncc(F)cc1F`, for which the IC50 in experiment [24] is 5.4 µM (active); in [25] it was 20 µM (active).

As for `CCCCOc1cc(CC2CNC(=O)N2)ccc1OC` (configuration not stated) [RO-201724], the AC50 in experiment [26] is 3.55 µM (inconclusive). Moreover, in [18], the CC50 is 23.8 µM (active).
